{
  "source": "patent US20230181696A1",
  "about": "“POLYPEPTIDE DRUG FOR PREVENTING AND/OR TREATING NEUROBLASTOMA AND USE THEREOF” (ZHUHAI TENGBAI PHARMACEUTICAL CO., LTD., priority 2020, published 2023)",
  "assay": "Body weight and normal-side kidney weight of tumor-bearing nude mice (toxic side effects)",
  "conditions": "for Body weight of tumor-bearing nude mice: mean ± SEM; for Body weight, End / Relative body weight, End / Kidney weight on normal side / Body weight, Start / Relative body weight, Start: mean±SEM; for Renal weight/body mass index on normal side / Kidney weight on normal side: left kidney, end of experiment",
  "note": "Peptide text beside a SMILES is read from it.",
  "excerpt": "Three days after the surgical modeling, the tumor-bearing mice were imaged with IVIS Spectrum CT in vivo, and the tumor-bearing mice were randomized over groups of 10 mice according to the luminescence intensity in the software analysis results.\nAnimals were observed daily and weighed every other day. Luminescence was detected with four times of in vivo imaging at day 1 (i.e., 3 days after surgical modeling), day 6, day 12 and day 15 from the experimental grouping. The time of in vivo imaging for luminescence detection was adjusted according to the survival and physical condition of the animals. At the end of the experiment (day 16) the animals were executed by neck dislocation, the kidney tissue and tumor masses was isolated for weighing and photographing, and the tumor masses were preserved in 4% formaldehyde solution for routine pathological testing.\nThe statistical analysis between groups was one-way ANOVA and Tukey’s test for pairwise comparison, and the statistical analysis between groups at different time points was two-way ANOVA and Bonferroni test for pairwise comparison.",
  "data": [
    {"smiles": "CSCC[C@H](NC(=O)CNC(=O)CNC(=O)[C@H](CO)NC(=O)[C@H](CC(C)C)NC(=O)[C@@H]1CCCN1C(=O)[C@H](CO)NC(=O)[C@H](CC(N)=O)NC(=O)[C@H](CC(C)C)NC(=O)[C@H](C)NC(=O)[C@@H](NC(=O)[C@H](CC(C)C)NC(=O)[C@H](Cc1c[nH]cn1)NC(=O)[C@H](CC(C)C)NC(=O)[C@@H](NC(=O)[C@@H]1CCCN1C(=O)[C@H](CCC(N)=O)NC(=O)[C@H](Cc1ccccc1)NC(=O)[C@H](CC(=O)O)NC(=O)[C@H](CCCNC(=N)N)NC(=O)[C@H](Cc1c[nH]cn1)NC(=O)[C@H](CO)NC(=O)[C@H](Cc1c[nH]cn1)NC(=O)[C@H](CCSC)NC(=O)[C@H](CC(=O)O)NC(=O)CNC(=O)[C@H](CCCNC(=N)N)NC(=O)[C@H](CC(=O)O)NC(=O)CNC(=O)[C@@H](N)CCCNC(=N)N)C(C)C)C(C)C)C(=O)O", "note": "[HYD-PEP06] (H-RGDRGDMHSHRDFQPVLHLVALNSPLSGGM-OH)", "values": [
      {"measurement": "Body weight of tumor-bearing nude mice", "setting": "5 mg/kg i.v. once a day, Day 1", "value": "20.8 ± 0.6", "unit": "g"},
      {"measurement": "Body weight of tumor-bearing nude mice", "setting": "5 mg/kg i.v. once a day, Day 4", "value": "21.8 ± 0.6", "unit": "g"},
      {"measurement": "Body weight of tumor-bearing nude mice", "setting": "5 mg/kg i.v. once a day, Day 7", "value": "21.2 ± 0.6", "unit": "g"},
      {"measurement": "Body weight of tumor-bearing nude mice", "setting": "5 mg/kg i.v. once a day, Day 10", "value": "20.9 ± 0.5", "unit": "g"},
      {"measurement": "Body weight of tumor-bearing nude mice", "setting": "5 mg/kg i.v. once a day, Day 13", "value": "21.1 ± 0.4", "unit": "g"},
      {"measurement": "Body weight of tumor-bearing nude mice", "setting": "5 mg/kg i.v. once a day, Day 16", "value": "21.0 ± 0.4", "unit": "g"},
      {"measurement": "Body weight, End", "setting": "5 mg/kg i.v. x15", "value": "21.0 ± 0.4", "unit": "g"},
      {"measurement": "Relative body weight, End", "setting": "5 mg/kg i.v. x15", "value": "101.6 ± 1.9", "unit": "%"},
      {"measurement": "Renal weight/body mass index on normal side", "setting": "5 mg/kg i.v. x15", "value": "0.85+0.01%"},
      {"measurement": "Kidney weight on normal side", "setting": "5 mg/kg i.v. x15", "value": "0.178 ± 0.003", "unit": "g"},
      {"measurement": "Body weight, Start", "setting": "5 mg/kg i.v. x15", "value": "20.8 ± 0.6", "unit": "g"},
      {"measurement": "Relative body weight, Start", "setting": "5 mg/kg i.v. x15", "value": "100.0±0.0", "unit": "%"},
      {"measurement": "Body weight of tumor-bearing nude mice", "setting": "10 mg/kg i.v. once a day, Day 1", "value": "20.2 ± 0.4", "unit": "g"},
      {"measurement": "Body weight of tumor-bearing nude mice", "setting": "10 mg/kg i.v. once a day, Day 4", "value": "21.9 ± 0.3", "unit": "g"},
      {"measurement": "Body weight of tumor-bearing nude mice", "setting": "10 mg/kg i.v. once a day, Day 7", "value": "21.1 ± 0.3", "unit": "g"},
      {"measurement": "Body weight of tumor-bearing nude mice", "setting": "10 mg/kg i.v. once a day, Day 10", "value": "21.2 ± 0.3", "unit": "g"},
      {"measurement": "Body weight of tumor-bearing nude mice", "setting": "10 mg/kg i.v. once a day, Day 13", "value": "21.3 ± 0.2", "unit": "g"},
      {"measurement": "Body weight of tumor-bearing nude mice", "setting": "10 mg/kg i.v. once a day, Day 16", "value": "21.0 ± 0.4", "unit": "g"},
      {"measurement": "Body weight, End", "setting": "10 mg/kg i.v. x15", "value": "21.0 ± 0.4", "unit": "g"},
      {"measurement": "Relative body weight, End", "setting": "10 mg/kg i.v. x15", "value": "104.0±2.2", "unit": "%"},
      {"measurement": "Renal weight/body mass index on normal side", "setting": "10 mg/kg i.v. x15", "value": "0.85±0.02", "unit": "%"},
      {"measurement": "Kidney weight on normal side", "setting": "10 mg/kg i.v. x15", "value": "0.178 ± 0.006", "unit": "g"},
      {"measurement": "Body weight, Start", "setting": "10 mg/kg i.v. x15", "value": "20.2 ± 0.4", "unit": "g"},
      {"measurement": "Relative body weight, Start", "setting": "10 mg/kg i.v. x15", "value": "100.0±0.0", "unit": "%"},
      {"measurement": "Body weight of tumor-bearing nude mice", "setting": "20 mg/kg i.v. once a day, Day 1", "value": "20.3 ± 0.4", "unit": "g"},
      {"measurement": "Body weight of tumor-bearing nude mice", "setting": "20 mg/kg i.v. once a day, Day 4", "value": "21.6 ± 0.4", "unit": "g"},
      {"measurement": "Body weight of tumor-bearing nude mice", "setting": "20 mg/kg i.v. once a day, Day 7", "value": "20.9 ± 0.5", "unit": "g"},
      {"measurement": "Body weight of tumor-bearing nude mice", "setting": "20 mg/kg i.v. once a day, Day 10", "value": "20.9 ± 0.5", "unit": "g"},
      {"measurement": "Body weight of tumor-bearing nude mice", "setting": "20 mg/kg i.v. once a day, Day 13", "value": "21.3 ± 0.6", "unit": "g"},
      {"measurement": "Body weight of tumor-bearing nude mice", "setting": "20 mg/kg i.v. once a day, Day 16", "value": "21.3 ± 0.6", "unit": "g"},
      {"measurement": "Body weight, End", "setting": "20 mg/kg i.v. x15", "value": "21.3 ± 0.6", "unit": "g"},
      {"measurement": "Relative body weight, End", "setting": "20 mg/kg i.v. x15", "value": "104.9±3.3", "unit": "%"},
      {"measurement": "Renal weight/body mass index on normal side", "setting": "20 mg/kg i.v. x15", "value": "0.86+0.01%"},
      {"measurement": "Kidney weight on normal side", "setting": "20 mg/kg i.v. x15", "value": "0.182 ± 0.005", "unit": "g"},
      {"measurement": "Body weight, Start", "setting": "20 mg/kg i.v. x15", "value": "20.3 ± 0.4", "unit": "g"},
      {"measurement": "Relative body weight, Start", "setting": "20 mg/kg i.v. x15", "value": "100.0±0.0", "unit": "%"},
      {"measurement": "Kidney weight, kidney weight/body mass index in the normal side (left side) and body weight vs model control group", "setting": "5, 10, 20 mg/kg i.v. x15", "value": "No significant differences"},
      {"measurement": "Toxic side effects", "setting": "at the effective dose (5-20 mg/kg i.v. x15)", "value": "did not show significant toxic side effects"}
    ]}
  ]
}
